Data on 1 sequence can be found in patent US10118943B2, “Compounds and methods for inhibiting cell death” (Ramot at Tel-Aviv University Ltd., priority 2012, dated 2018).

“Also recorded” adds a separate entry of the source.

The subject of one experiment is primary cortical neurons. The experiment in a line: PSD-95 density in primary cortical neuron culture. Format: cell-based, rat. To be noted: neurons treated for 2 hrs. The procedure:
Methods: 1. Primary cultures of neurons were prepared as follows. Newborn rats were sacrificed on postnatal day 1. Cerebral cortex tissue was then dissected and dissociated individually from each pup with the Papain Dissociation System (PDS; Worthington Biochemical Corporation) according to the manufacturer's instructions. 2. Cells were fixed with ice cold methanol, blocked with 2% bovine serum albumin (BSA) and 5% normal goat serum in Tris buffered saline containing tween 20 (TBS-T; 20 mM Tris pH 7.5, 136.8 mM NaCl, and 0.05% v/v Tween 20), and incubated with primary antibody followed by the appropriate secondary antibody. 3. Primary antibodies that were used include: monoclonal anti PSD-95 (ab-2723, Abcam), monoclonal anti Tyr-α-tubulin antibody (YL1/2) (VMA1864, Abcys, Paris, France), polyclonal anti Glu-α-tubulin antibody (L4) (AbC0101, Abcys, Paris, France), DyLight 488-labeled secondary goat anti-mouse IgG, DyLight 633-labeled secondary goat anti-rabbit IgG (KPL, Gaithersburg, Md., USA), Cy3-conjugated secondary goat anti-Rat IgG, (Jackson ImmunoResearch). 4. Images were collected with a Leica SP5 confocal laser scanning microscope (Mannheim, Germany) with 63× oil immersion optics, laser lines at 488, 561, 633 nm. Identical confocal laser scanning microscopy (CLSM) parameters (e.g., scanning line, laser light, gain, and offset etc.) were used for control and NAP treated cells.
For instance, a PSD-95 expression assay using primary cortical neuron cultures established from suitable animals may be performed to confirm a compound's activity in promoting cell plasticity. More specifically, primary cultures of neurons are prepared by first taking cerebral cortex tissue from newborn rats on postnatal day 1. The cerebral cortex tissue is then dissected and dissociated individually from each animal. Cells are fixed with ice cold methanol, blocked (e.g., with bovine serum albumin (BSA) and normal goat serum), and incubated with primary antibody (e.g., monoclonal antibody against PSD-95), optionally followed by the appropriate secondary antibody for imaging purposes. Images of primary neuronal cultures are taken and compared between cultures with or without being exposed to a test compound. An increased PSD-95 expression is indicative of the test compound being capable of promoting or protecting cell plasticity, especially neuronal plasticity.
Cerebral cortex tissue from newborn rats was dissected and dissociated individually from each pup with the Papain Dissociation System (PDS), (Worthington Biochemical Corporation) according to the manufacturer's instructions. Cortical neurons were maintained in Neurobasal medium (NB), (Gibco) supplemented with NeuroCult B27-SM1 ([…]), 1% Glutamax (Gibco), and grown on poly-D-lysine-coated cell culture glass cover slips.
Images were collected with a Leica SP5 confocal laser scanning microscope (Mannheim, Germany) with 63× oil immersion optics, laser lines at 488, 561, 633 nm or with LSM 510 META (Zeiss, Jena, Germany) confocal laser scanning microscope with 63× oil immersion optics, laser lines at 488, 568, 633 nm. When comparing fluorescence intensities, identical CLSM parameters (e.g., scanning line, laser light, gain, and offset etc.) were used. All of the fluorescent signals acquired were above the autofluorescent background as measured from a control slide stained with secondary antibody without a primary antibody. To compare the relative levels of protein expression, the average integrated density (AID) image analysis procedure was used for cell immunostains. In brief, integrated density is defined by the sum of the values of the pixels in the selected region of interest (ROI). This is equivalent to the product of Area and Mean Gray Value. AID for the positive stained area was determined by measuring the fluorescent intensity of the ROI, which is above the positive cut-off intensity. […]

Another experiment has as its system PC12 cells. The experiment in a line: PC12 cell survival assay, zinc toxicity, MTS (Example 1). The note with it: 400 μM zinc, 4 hrs, peptide 10^−9M. The procedure: PC12 cells (Pheochromocytoma cells) (ATCC, Bethesda, Md., USA) were seeded at 3×10^4 cells/cm^2 on poly-L-Lysine coated plastic tissue culture dishes (Corning, Lowell, Mass., USA) to form an adherent monolayer. Cells were maintained in Dulbecco's modified Eagle's medium (DMEM) supplemented with 10% horse serum (HS), 5% fetal calf serum (FCS), 2 mM glutamine, 100 U/ml penicillin and […] streptomycin (Biological Industries, Beit Haemek, Israel). PC12 differentiation was induced by nerve growth factor (NGF, Sigma) at concentrations of 50 ng/ml by replacing half of the medium every other day until the cells acquired a differentiated morphology. Differentiated cells were defined as bearing two or more neurites with lengths equal to or more than twice the diameter of the cell body (P. Lamoureux et al., The Journal of cell biology 110, 71 (January, 1990)). The cells were incubated in 5% CO2 in a humidified incubator at 37° C. The cells were sub-cultured every 5 days at a 4:1 split ratio by pipetting. The medium was changed every 2 or 3 days after adhesion.
Transfections were performed using Lipofectamine RNAiMAX (Invitrogen). Transfection was carried out according to manufacturer's protocol. For rat MAPRE3 knockdown, PC12 cells or neurons were plated in growth medium without antibiotics at concentration of 10^4 cells/0.32 cm^2 such that they will be 30-50% confluent at the time of transfection. To obtain the highest transfection efficiency and low non-specific effects, siRNA transfection was performed in the following optimized conditions: 50 nM for neurons and 25 nM PC12 of each siRNA construct with 0.2 μl Lipofectamine RNAiMAX (Invitrogen) was added per well of the 96-well plate and scaled up for different 24 or 6-well plates, according to the manufacturer's instructions. The medium was changed one day after transfection. 48 and 72 hours later, cells were harvested to assay for gene knockdown at the RNA and protein levels.
The cells were incubated for 4 hrs at 37° C. 5% CO2. Survival was measured using the MTS assay.
Metabolic activity of cells was measured by the CellTiter 96® Aqueous Non-Radioactive Cell Proliferation kit in accordance with the manufacturer's instructions (Promega). The assay uses a colorimetric method for determining the number of viable cells employing a tetrazolium compound [3-(4,5-dimethylthiazol-2-yl)-5-(3-carboxymethoxyphenyl)-2-(4-sulfophenyl)-2H-tetrazolium, MTS] and an electron-coupling reagent, phenazine methosulfate (PMS). MTS is bio-reduced by cells into a formazan product that is detected at 490 nm. The conversion of MTS into the formazan form is accomplished by dehydrogenase enzymes found in metabolically active cells. Thus, the quantity of formazan product as measured by the amount of 490 nm absorbance is directly proportional to the number of living cells in culture (A. H. Cory, T. C. Owen, J. A. Barltrop, J. G. Cory, Cancer Commun 3, 207 (July, 1991)).

Turning to “NAPVSKIPQ (synthetic novel peptide core sequence SKIP derived from hybrid microtubule end-binding protein 3 (EB3)- binding microtubule plus-end tracking proteins (+TIPs) and activity-dependent neurotrophic factor (ADNF) active core site (NAP))”, the “derivative peptides effect on PSD-95 density vs vehicle controls (FIG. 10c)” value in the experiment on primary cortical neurons is reported as “paralleled to NAPVSIPQ activity; also recorded: significantly increased”. The “protection against cell death induced by zinc toxicity (MTS survival)” value in the experiment on PC12 cells is on record as “provided protection against zinc toxicity; also recorded: significantly increased survival”; in the experiment on PC12 cells (listed as SKIP), “significantly increased survival”.
